In patent US9862717B2 (Merck Patent GmbH, priority 2014, dated 2018):

molecular target: T1, CDK8/CycC (Homo sapiens, UniProt P49336); experiment: FRET based Lanthascreen binding competition assay for CDK8 inhibitory activity; conditions: CDK8 co-expressed with CycC; class symbols; read-out: IC50
T1 construct: purchased Invitrogen PV4402
How it was run: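 Competition binding of a dye-labeled ATP-competitive Alexa647 probe to CDK8 co-expressed with CycC, Eu-labeled via biotinylated anti-His antibody/streptavidin.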

T1 sequence (P49336 whole entry): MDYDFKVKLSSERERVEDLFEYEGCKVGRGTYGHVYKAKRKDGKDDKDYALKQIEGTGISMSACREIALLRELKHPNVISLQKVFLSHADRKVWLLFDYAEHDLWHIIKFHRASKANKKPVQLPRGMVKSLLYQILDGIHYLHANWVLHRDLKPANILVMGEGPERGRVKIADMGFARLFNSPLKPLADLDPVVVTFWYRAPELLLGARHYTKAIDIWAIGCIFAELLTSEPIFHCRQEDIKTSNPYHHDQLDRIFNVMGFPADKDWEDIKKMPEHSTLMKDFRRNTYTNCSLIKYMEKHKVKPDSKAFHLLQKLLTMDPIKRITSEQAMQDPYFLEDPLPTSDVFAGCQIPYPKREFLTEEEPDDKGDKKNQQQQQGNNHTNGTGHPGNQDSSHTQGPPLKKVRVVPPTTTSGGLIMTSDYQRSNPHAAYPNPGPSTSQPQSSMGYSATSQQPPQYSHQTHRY
T1 sequence (P24863 whole entry partner): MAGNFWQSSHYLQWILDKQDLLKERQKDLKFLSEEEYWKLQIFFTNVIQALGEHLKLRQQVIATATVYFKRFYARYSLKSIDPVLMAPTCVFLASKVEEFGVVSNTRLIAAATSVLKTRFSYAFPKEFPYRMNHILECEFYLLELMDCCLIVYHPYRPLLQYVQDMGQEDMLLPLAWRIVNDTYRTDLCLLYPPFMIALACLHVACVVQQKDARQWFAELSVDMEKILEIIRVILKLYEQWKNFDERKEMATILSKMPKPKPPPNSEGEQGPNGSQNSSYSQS

IC50 [µM]	SMILES
0.01 to 0.1	Cc1n[nH]c2ncc(C(=O)N3CCC[C@H]3c3ccc4cn[nH]c4c3)cc12 [compound 230, [(S)-2-(1H-Indazol-6-yl)-pyrrolidin-1-yl]-(3-methyl-1H-pyrazolo[3,4-b]pyridin-5-yl)-methanone]
1 to 10	Cc1n[nH]c2ncc(C(=O)N3C[C@@H](C)C[C@@H]3c3ccc(C(F)(F)F)cc3)cc12 [compound 231, (3-Methyl-1H-pyrazolo[3,4-b]pyridin-5-yl)-[(2R,4S)-4-methyl-2-(4-trifluoromethyl-phenyl)-pyrrolidin-1-yl]-methanone]
0.01 to 0.1	Cc1n[nH]c2ncc(C(=O)N3C[C@H](C)C[C@H]3c3ccc(C(F)(F)F)cc3)cc12 [compound 232, (3-Methyl-1H-pyrazolo[3,4-b]pyridin-5-yl)-[(2S,4R)-4-methyl-2-(4-trifluoromethyl-phenyl)-pyrrolidin-1-yl]-methanone]
0.1 to 1	Cc1n[nH]c2ncc(C(=O)N3CCC(C(N)=O)CC3c3ccccc3)cc12 (centres unmarked) [compound 235, 1-(3-Methyl-1H-pyrazolo[3,4-b]pyridine-5-carbonyl)-2-phenyl-piperidine-4-carboxylic acid amide]
0.1 to 1	Cc1n[nH]c2ncc(C(=O)N3CCC(O)(c4ccc(Cl)cc4)C3)cc12 (centres unmarked) [compound 237, [3-(4-Chloro-phenyl)-3-hydroxy-pyrrolidin-1-yl]-(3-methyl-1H-pyrazolo[3,4-b]pyridin-5-yl)-methanone]
0.1 to 1	Nc1n[nH]c2ccc(C(=O)N3CCC(O)(c4ccc(Cl)cc4)C3)cc12 (centres unmarked) [compound 238, (3-Amino-1H-indazol-5-yl)-[3-(4-chloro-phenyl)-3-hydroxy-pyrrolidin-1-yl]-methanone]
0.1 to 1	O=C(c1cnc2[nH]ncc2c1)N1CCC[C@H]1c1ccc(Cl)cc1 [compound 239, [(S)-2-(4-Chloro-phenyl)-pyrrolidin-1-yl]-(1H-pyrazolo[3,4-b]pyridin-5-yl)-methanone]
1 to 10	Cc1n[nH]c2ncc(C(=O)N3CC[C@@H]3c3ccc(Cl)cc3)cc12 [compound 240, [(R)-2-(4-Chloro-phenyl)-azetidin-1-yl]-(3-methyl-1H-pyrazolo[3,4-b]pyridin-5-yl)-methanone]
0.01 to 0.1	Cc1n[nH]c2ncc(C(=O)N3CC[C@H]3c3ccc(Cl)cc3)cc12 [compound 241, [(S)-2-(4-Chloro-phenyl)-azetidin-1-yl]-(3-methyl-1H-pyrazolo[3,4-b]pyridin-5-yl)-methanone]
< 0.01	Cc1n[nH]c2ccc(C(=O)N3CCC[C@H]3c3ccc(F)cc3)nc12 [compound 242, (S)-(2-(4-fluorophenyl)pyrrolidin-1-yl)(3-methyl-1H-pyrazolo[4,3-b]pyridin-5-yl)methanone]
0.01 to 0.1	COc1n[nH]c2ncc(C(=O)N3CCC[C@H]3c3ccc(Cl)cc3)cc12 [compound 243, (S)-(2-(4-chlorophenyl)pyrrolidin-1-yl)(3-methoxy-1H-pyrazolo[3,4-b]pyridin-5-yl)methanone]
0.01 to 0.1	Cc1n[nH]c2ncc(C(=O)N3CCC[C@H]3c3ccc4[nH]ncc4c3)cc12 [compound 245, [(S)-2-(1H-Indazol-5-yl)-pyrrolidin-1-yl]-(3-methyl-1H-pyrazolo[3,4-b]pyridin-5-yl)-methanone]
1 to 10	Cc1n[nH]c2ncc(C(=O)N3CCC[C@@H]3c3ccc4[nH]ncc4c3)cc12 [compound 246, [(R)-2-(1H-Indazol-5-yl)-pyrrolidin-1-yl]-(3-methyl-1H-pyrazolo[3,4-b]pyridin-5-yl)-methanone]
0.01 to 0.1	Cc1n[nH]c2ncc(C(=O)N3CCC[C@H]3c3ccc(C#N)cc3)cc12 [compound 247, 4-[(S)-1-(3-Methyl-1H-pyrazolo[3,4-b]pyridine-5-carbonyl)-pyrrolidin-2-yl]-benzonitrile]
1 to 10	Cc1n[nH]c2ncc(C(=O)N3CCC[C@@H]3c3ccc(C#N)cc3)cc12 [compound 248, 4-[(R)-1-(3-Methyl-1H-pyrazolo[3,4-b]pyridine-5-carbonyl)-pyrrolidin-2-yl]-benzonitrile]
0.01 to 0.1	Cc1n[nH]c2ncc(C(=O)N3CCC(CCO)(c4ccc(Cl)cc4)C3)cc12 (centres unmarked) [compound 249, [3-(4-Chloro-phenyl)-3-(2-hydroxy-ethyl)-pyrrolidin-1-yl]-(3-methyl-1H-pyrazolo[3,4-b]pyridin-5-yl)-methanone]
0.1 to 1	Nc1n[nH]c2ccc(C(=O)N3CCC(CCO)(c4ccc(Cl)cc4)C3)cc12 (centres unmarked) [compound 250, (3-Amino-1H-indazol-5-yl)-[3-(4-chloro-phenyl)-3-(2-hydroxy-ethyl)-pyrrolidin-1-yl]-methanone]
0.1 to 1	Cc1n[nH]c2ncc(C(=O)N3C[C@H](N)C[C@H]3c3ccc(Cl)cc3)cc12 [compound 251, [(2S,4R)-4-Amino-2-(4-chloro-phenyl)-pyrrolidin-1-yl]-(3-methyl-1H-pyrazolo[3,4-b]pyridin-5-yl)-methanone]
0.1 to 1	Cc1n[nH]c2ncc(C(=O)N3CCC[C@H]3c3ccc(Cl)c(C#N)c3)cc12 [compound 252, 2-Chloro-5-[(S)-1-(3-methyl-1H-pyrazolo[3,4-b]pyridine-5-carbonyl)-pyrrolidin-2-yl]-benzonitrile]
1 to 10	Cc1n[nH]c2ncc(C(=O)N3CCC[C@@H]3c3ccc(Cl)c(C#N)c3)cc12 [compound 253, 2-Chloro-5-[(R)-1-(3-methyl-1H-pyrazolo[3,4-b]pyridine-5-carbonyl)-pyrrolidin-2-yl]-benzonitrile]
0.1 to 1	CN[C@@H]1C[C@@H](c2ccc(Cl)cc2)N(C(=O)c2cnc3[nH]nc(C)c3c2)C1 [compound 254, [(2S,4R)-2-(4-Chloro-phenyl)-4-methylamino-pyrrolidin-1-yl]-(3-methyl-1H-pyrazolo[3,4-b]pyridin-5-yl)-methanone]
1 to 10	Cc1n[nH]c2ncc(C(=O)N3C[C@@H](O)[C@H](c4ccc(Cl)cc4)C3)cc12 [compound 255, [(3R,4S)-3-(4-Chloro-phenyl)-4-hydroxy-pyrrolidin-1-yl]-(3-methyl-1H-pyrazolo[3,4-b]pyridin-5-yl)-methanone]
< 0.01	Cc1n[nH]c2ncc(C(=O)N3C[C@H](c4ccc(Cl)cc4)[C@@H](O)C3)cc12 [compound 256, [(3S,4R)-3-(4-Chloro-phenyl)-4-hydroxy-pyrrolidin-1-yl]-(3-methyl-1H-pyrazolo[3,4-b]pyridin-5-yl)-methanone]
< 0.01	Cc1n[nH]c2ccc(C(=O)N3CCC[C@H]3c3ccc(C(F)(F)F)cc3)nc12 [compound 257, (S)-(3-Methyl-1H-pyrazolo[4,3-b]pyridin-5-yl)(2-(4-(trifluoromethyl)phenyl)pyrrolidin-1-yl)methanone]
1 to 10	Cc1n[nH]c2ncc(C(=O)N3CCC[C@@H]3c3cccc(C#N)c3)cc12 [compound 258, 3-[(R)-1-(3-Methyl-1H-pyrazolo[3,4-b]pyridine-5-carbonyl)-pyrrolidin-2-yl]-benzonitrile]
0.1 to 1	Cc1n[nH]c2ncc(C(=O)N3CCC[C@H]3c3cccc(C#N)c3)cc12 [compound 259, 3-[(S)-1-(3-Methyl-1H-pyrazolo[3,4-b]pyridine-5-carbonyl)-pyrrolidin-2-yl]-benzonitrile]
< 0.01	Cc1n[nH]c2ccc(C(=O)N3CCCC3c3ccc(Cl)c(F)c3)nc12 (centres unmarked) [compound 260, (2-(4-chloro-3-fluorophenyl)pyrrolidin-1-yl)(3-methyl-1H-pyrazolo[4,3-b]pyridin-5-yl)methanone]
0.1 to 1	Cc1n[nH]c2ncc(C(=O)N3C[C@H](O)C[C@H]3c3ccc(Cl)cc3)cc12 [compound 261, [(2S,4R)-2-(4-Chloro-phenyl)-4-hydroxy-pyrrolidin-1-yl]-(3-methyl-1H-pyrazolo[3,4-b]pyridin-5-yl)-methanone]
0.1 to 1	Cc1n[nH]c2ncc(C(=O)N3CCC[C@H]3c3ccc(CN)cc3)cc12 [compound 262, [(S)-2-(4-Aminomethyl-phenyl)-pyrrolidin-1-yl]-(3-methyl-1H-pyrazolo[3,4-b]pyridin-5-yl)-methanone]

same assay, conditions: CDK8 co-expressed with CycC; numeric value; read-out: IC50

IC50 [µM]	SMILES
0.34	Nc1n[nH]c2cnc(C(=O)N3CCC[C@H]3c3ccc(Cl)cc3)cc12 [compound 265]

same assay, conditions: IC50 [μM], CDK8 co-expressed with CycC; class symbols

IC50 [µM]	SMILES
< 0.01	CNc1n[nH]c2ccc(C(=O)N3CCC[C@H]3c3ccc(Cl)cc3)cc12 [compound 236, [(S)-2-(4-Chloro-phenyl)-pyrrolidin-1-yl]-(3-methylamino-1H-indazol-5-yl)-methanone]
0.01 to 0.1	Cc1n[nH]c2ccc(C(=O)N3CCN(C)CC3c3ccc(Cl)cc3)cc12 (centres unmarked) [compound 244, (2-(4-chlorophenyl)-4-methylpiperazin-1-yl)(3-methyl-1H-indazol-5-yl)methanone]
